The record followed here is patent US20210107871A1 (priority 2017, published 2021).

Format in all cases: cell-based
The test system of assay [1] is pseudotype VSV (expressing GFP) having the surface glycoprotein of Ebola virus (zaire sp.). The experiment in a line: organism not typed. As to conditions: for activity at 0.005 µM / activity at 0.02 µM / activity at 0.078 µM / activity at 0.312 µM / activity at 0.625 µM / activity at 1.25 µM / activity at 2.5 µM / activity at 5 µM: Vesicular stomatitis virus, Vero C1008, 18 h, read-out: Viral Infection rate (%); for activity at 0.005 µM: Compound Conc. 0.005 μM; for activity at 0.02 µM: Compound Conc. 0.020 μM; for activity at 0.078 µM: Compound Conc. 0.078 μM; for activity at 0.312 µM: Compound Conc. 0.312 μM; for activity at 0.625 µM: Compound Conc. 0.625 μM; for activity at 1.25 µM: Compound Conc. 1.25 μM; for activity at 2.5 µM: Compound Conc. 2.5 μM; for activity at 5 µM: Compound Conc. 5 μM.

The subject of assay [2] is sudan Ebola virus (pseudotype VSV). Nature of the assay: microbe, parasite or virus in culture. Particulars: Sudan ebolavirus, read-out: C values.
For assay [3], the system named is bundibugyo Ebola virus (pseudotype VSV). The experiment in a line: microbe, parasite or virus in culture. As to conditions: read-out: C values.
Assay [4] deals with tai forest Ebola virus (pseudotype VSV). Nature of the assay: microbe, parasite or virus in culture. Particulars: read-out: C values.
For assay [5], the system named is reston Ebola virus (pseudotype VSV). Nature of the assay: microbe, parasite or virus in culture. Particulars: Reston ebolavirus, read-out: C values.
For assay [6], the system named is Marburgvirus (Angola strain) (pseudotype VSV). The experiment in a line: microbe, parasite or virus in culture. As to conditions: Orthomarburgvirus, read-out: C values.

`COc1ccc(N(CC2CCN(C)CC2)S(=O)(=O)c2ccccc2)c(-c2ccccc2)c1` [4-20] yielded an IC50 in assay [1] (Vero C1008) of approximately 50 nM. In assay [1], the activity at 0.005 µM is 91.8%, the activity at 0.02 µM stood at 78.8%, the activity at 0.078 µM was found to be 43.7% and the activity at 0.312 µM stood at 4.58%. In assay [1], the activity at 0.625 µM was 2.58%, the activity at 1.25 µM turned out to be 0.23%, the activity at 2.5 µM worked out at 0.09% and the activity at 5 µM turned out to be 0.17%. The IC50 in assay [2] was approximately 300 nM. In addition, the IC50 in assay [3] was approximately 50 nM. Further, in assay [4], the IC50 is 500 to 1000 nM. For the same molecule, the IC50 in assay [5] was approximately 1000 nM. The IC50 in assay [6] fell in the range of 1000 to 5000 nM.

For `CCOc1ccc(N(CC2CCN(CC)CC2)S(=O)(=O)c2ccccc2)c(-c2ccccc2)c1` [4-39], in assay [1], the activity at 0.005 µM turned out to be 98.4%, the activity at 0.02 µM was 103% and the activity at 1.25 µM is 116%.

Take `CCN(CC)CCCN(c1ccc(OC)cc1[N+](=O)[O-])S(=O)(=O)c1cccc(F)c1` [4-4, 3-fluoro-N-[3-(diethylamino)propyl]-N-(4-methoxy-2-nitro-phenyl)benzensulfonamide]: in assay [1], the activity at 0.312 µM stood at 84.4%, the activity at 0.625 µM amounted to 71.3%, the activity at 1.25 µM is 29.7% and the activity at 2.5 µM was 8.13%. The activity at 5 µM in assay [1] was found to be 2.05%.

Consider `CCN1CCC(CN(c2ccc(OC)cc2-c2cccc(F)c2)S(=O)(=O)c2ccccc2)CC1` [4-54, N-[2-(3-fluorophenyl)-4-methoxy-phenyl)-N-(1-ethyl-4-piperidylmethyl)benzensulfonamide], for which, in assay [1], the activity at 0.02 µM is 90%, the activity at 0.078 µM was 74.5%, the activity at 0.312 µM amounted to 28.6% and the activity at 1.25 µM is 0.1%. Also, the activity at 5 µM in assay [1] came out at 0%.

On to `CCN(CC)CCCN(c1ccc(OC)cc1[N+](=O)[O-])S(=O)(=O)c1cccc2ccccc12` [4-9, N-[3-(diethylamino)propyl]-N-(4-methoxy-2-nitro-phenyl)naphthalene-1-sulfonamide], for which, in assay [1], the activity at 0.312 µM came out at 82.5%, the activity at 0.625 µM is 58.6%, the activity at 1.25 µM worked out at 20.8% and the activity at 5 µM came out at 2.32%.

In the case of `COc1ccc(N(CC2CCCN(C(=O)OC(C)(C)C)C2)S(=O)(=O)c2ccccc2)c(-c2ccccc2)c1` (centres unmarked) [4-22, t-butyl-3-[[N-(benzenesulfonyl)-4-methoxy-2-phenyl-anilino]methyl]piperidine-1-carboxylate], the activity at 5 µM in assay [1] was approximately 8.7%.

On to `CCN1CCC(CN(c2ccc(OC)cc2-c2ccccc2F)S(=O)(=O)c2ccccc2)CC1` [4-57, N-[2-(2-fluorophenyl)-4-methoxy-phenyl)-N-(1-ethyl-4-piperidylmethyl)benzensulfonamide], for which, in assay [1], the activity at 0.005 µM is 101%, the activity at 0.078 µM stood at 93.3%, the activity at 0.312 µM worked out at 58.2% and the activity at 1.25 µM stood at 1%. Moreover, in assay [1], the activity at 5 µM came out at 0.83%.

Regarding `COc1ccc(N(CC2CCN(C(=O)OC(C)(C)C)CC2)S(=O)(=O)c2ccccc2)c(-c2ccccc2)c1` [4-18, t-butyl-4-[[N-(benzenesulfonyl)-4-methoxy-2-phenyl-anilino]methyl]piperidine-1-carboxylate], in assay [1], the activity at 5 µM was determined as 23.3%.

On to `CCN(CC)CCCN(c1ccccc1-c1ccccc1)S(=O)(=O)c1ccc(OC)cc1` [4-14, 4-methoxy-N-[3-(diethylamino)propyl]-N-(2-phenyl-phenyl)benzensulfonamide], for which, in assay [1], the activity at 0.312 µM stood at 77.4%, the activity at 0.625 µM came to 42.2%, the activity at 1.25 µM came to 7.82% and the activity at 5 µM amounted to 0.83%.

In the case of `COc1ccc(N(CCN2CCOCC2)S(=O)(=O)c2ccccc2)c(-c2ccccc2)c1` [4-34, N-(4-methoxy-2-phenyl-phenyl)-N-(2-morpholinoethyl)benzensulfonamide], in assay [1], the activity at 1.25 µM turned out to be 76.9%, the activity at 2.5 µM is 40.2% and the activity at 5 µM amounted to 4.56%.

Turning to `CCN1CCC(CN(c2ccc(OC)cc2-c2ccc(F)cc2)S(=O)(=O)c2ccccc2)CC1` [4-51, N-[2-(4-fluorophenyl)-4-methoxy-phenyl)-N-(1-ethyl-4-piperidylmethyl)benzensulfonamide], in assay [1], the activity at 0.005 µM was found to be 92.2%, the activity at 0.02 µM stood at 84.5%, the activity at 0.078 µM is 45% and the activity at 0.312 µM was found to be 11.9%. Further, in assay [1], the activity at 1.25 µM turned out to be 0.51% and the activity at 5 µM turned out to be 0%.

Consider `CCN(CC)CCCN(c1ccc(OC)cc1[N+](=O)[O-])S(=O)(=O)c1ccccc1C` [4-7, 2-methyl-N-[3-(diethylamino)propyl]-N-(4-methoxy-2-nitro-phenyl)benzensulfonamide], for which, in assay [1], the activity at 0.312 µM is 87.2%, the activity at 0.625 µM was found to be 68.4%, the activity at 1.25 µM worked out at 37% and the activity at 2.5 µM amounted to 12.9%. Further, in assay [1], the activity at 5 µM came to 5.08%.

In the case of `CCN(CC)CCCN(c1ccccc1-c1ccccc1)S(=O)(=O)c1cccc2ccccc12` [4-13, N-[3-(diethylamino)propyl]-N-(2-phenyl-phenyl)naphthalene-1-sulfonamide], the activity at 0.625 µM in assay [1] came out at 90.2%.

In the case of `CCN(CC)CCCN(c1ccc(OC)cc1[N+](=O)[O-])S(=O)(=O)c1ccc(F)cc1` [4-3, 4-fluoro-N-[3-(diethylamino)propyl]-N-(4-methoxy-2-nitro-phenyl)benzensulfonamide], in assay [1], the activity at 0.312 µM came to 105%, the activity at 0.625 µM was found to be 88.1%, the activity at 1.25 µM turned out to be 52.8% and the activity at 2.5 µM was 18.4%. Moreover, the activity at 5 µM in assay [1] came to 3.8%.

`CCN(CC)CCCN(c1ccc(OC)cc1[N+](=O)[O-])S(=O)(=O)c1ccc(OC)cc1` [4-11, 4-methoxy-N-[3-(diethylamino)propyl]-N-(4-methoxy-2-nitro-phenyl)benzensulfonamide]: in assay [1], the activity at 0.312 µM came to 88.3% and the activity at 5 µM is 2.09%.

Take `COc1ccc(N(CCN(C)C)S(=O)(=O)c2ccccc2)c(-c2ccccc2)c1` [4-33, N-[3-(dimethylamimo)ethyl]-N-(4-methoxy-2-phenyl-phenyl)benzensulfonamide]: in assay [1], the activity at 0.312 µM was 81.1%, the activity at 0.625 µM worked out at 71.3%, the activity at 1.25 µM worked out at 17.1% and the activity at 2.5 µM was 1.51%. The activity at 5 µM in assay [1] was 0.1%.

As for `CCN(CC)CCCN(c1ccc(OC)cc1[N+](=O)[O-])S(=O)(=O)c1ccccc1` [4-1, N-[3-(diethylamino)propyl]-N-(4-methoxy-2-nitro-phenyl)benzensulfonamide], in assay [1], the activity at 0.312 µM turned out to be 87.5%, the activity at 0.625 µM is approximately 38%, the activity at 1.25 µM was approximately 12% and the activity at 2.5 µM stood at 2.83%. The activity at 5 µM in assay [1] came to 1.83%.

Consider `COc1ccc(N(CCCN)S(=O)(=O)c2ccccc2)c(-c2ccccc2)c1` [4-32, N-(3-aminopropyl)-N-(4-methoxy-2-phenyl-phenyl)benzensulfonamide], for which, in assay [1], the activity at 0.312 µM came out at 86%, the activity at 0.625 µM came out at 82.4%, the activity at 1.25 µM came out at 57.8% and the activity at 2.5 µM amounted to 15.8%. The activity at 5 µM in assay [1] is 0.47%.

`COc1ccc(N(CCN2CCCCC2)S(=O)(=O)c2ccccc2)c(-c2ccccc2)c1` [4-35, N-(4-methoxy-2-phenyl-phenyl)-N-[2-(1-piperidyl)ethyl]benzensulfonamide]: in assay [1], the activity at 0.312 µM came out at 89.5%, the activity at 0.625 µM was 82.3%, the activity at 1.25 µM was 1.82% and the activity at 2.5 µM was 30.3%.

As for `CCN(CC)CCCN(c1ccccc1-c1ccccc1)S(=O)(=O)c1ccccc1` [4-8, N-[3-(diethylamino)propyl]-N-(2-phenyl-phenyl)benzensulfonamide], in assay [1], the activity at 0.312 µM is 89%, the activity at 1.25 µM is 10.8%, the activity at 2.5 µM was determined as 1.93% and the activity at 5 µM came to 1.11%.

As for `COc1ccc(N(CC2CCCNC2)S(=O)(=O)c2ccccc2)c(-c2ccccc2)c1` (centres unmarked) [4-23, N-(4-methoxy-2-phenyl-phenyl)-N-(3-piperidylmethyl)benzensulfonamide], in assay [1], the activity at 0.312 µM was 100%, the activity at 2.5 µM was approximately 24.4% and the activity at 5 µM amounted to 1.79%.

Consider `CCN(CC)CCCN(c1ccc(OC)cc1-c1ccc(F)cc1)S(=O)(=O)c1ccccc1` [4-68, N-[3-(diethylamino)propyl]-N-[2-(4-fluorophenyl)-4-methoxy-phenyl)benzensulfonamide], for which, in assay [1], the activity at 0.005 µM was 99.3%, the activity at 0.312 µM came to 52.8% and the activity at 5 µM worked out at 0.25%.

With `CCN(CC)CCCN(c1ccc(OC)cc1[N+](=O)[O-])S(=O)(=O)c1cccc(C)c1` [4-6, 3-methyl-N-[3-(diethylamino)propyl]-N-(4-methoxy-2-nitro-phenyl)benzenesulfonamide], in assay [1], the activity at 0.312 µM was determined as 91.2%, the activity at 0.625 µM stood at 91.1%, the activity at 1.25 µM was determined as 57.1% and the activity at 2.5 µM worked out at 20.1%. Moreover, the activity at 5 µM in assay [1] turned out to be 3.8%.
